Measured values taken from PubChem BioAssay AID1918943 (Molecular Pharmacology Branch, DTP, NCI, 2023).
Several values for one entry are separate records, joined by “and”; a condition that tells them apart may be missing. Equal values may be shown once. Values belong to the molecule of their own block, whether it stands above or below them.

Test system: 855422-203-R-J1-PDC complex spheroid viability
Assay: Anticancer human tumor 855422-203-R-J1-PDC patient-derived bladder carcinoma cell line growth inhibition
Conditions: for viability, T/C: stronger effect = lower value
How it was run: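 Multicellular complex spheroids of tumor cells with human endothelial cells (HUVEC) and mesenchymal stem cells; the LSD1 inhibitor iadademstat was combined with standard-of-care or investigational agents. Top concentration at or near clinical Cmax, half-log dilutions; final DMSO ≤0.25%.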

[1] = curve of first compound, second compound 0.1 µM
[2] = curve of first compound, second compound 0.316 µM
[3] = curve of first compound, second compound 1 µM
[4] = curve of first compound, second compound 3.16 µM
[5] = curve of first compound, second compound 10 µM
[6] = second compound 0.1 µM, first compound 0.0316 µM
[7] = second compound 0.1 µM, first compound 0.1 µM
[8] = second compound 0.1 µM, first compound 0.316 µM
[9] = second compound 0.1 µM, first compound 1 µM
[10] = second compound 0.1 µM, first compound 3.16 µM
[11] = second compound 0.1 µM, first compound 10 µM
[12] = second compound 0.316 µM, first compound 0.0316 µM
[13] = second compound 0.316 µM, first compound 0.1 µM
[14] = second compound 0.316 µM, first compound 0.316 µM
[15] = second compound 0.316 µM, first compound 1 µM
[16] = second compound 0.316 µM, first compound 3.16 µM
[17] = second compound 0.316 µM, first compound 10 µM
[18] = second compound 1 µM, first compound 0.0316 µM
[19] = second compound 1 µM, first compound 0.1 µM
[20] = second compound 1 µM, first compound 0.316 µM
[21] = second compound 1 µM, first compound 1 µM
[22] = second compound 1 µM, first compound 3.16 µM
[23] = second compound 1 µM, first compound 10 µM
[24] = second compound 3.16 µM, first compound 0.0316 µM
[25] = second compound 3.16 µM, first compound 0.1 µM
[26] = second compound 3.16 µM, first compound 0.316 µM
[27] = second compound 3.16 µM, first compound 1 µM
[28] = second compound 3.16 µM, first compound 3.16 µM
[29] = second compound 3.16 µM, first compound 10 µM
[30] = second compound 10 µM, first compound 0.0316 µM
[31] = second compound 10 µM, first compound 0.1 µM
[32] = second compound 10 µM, first compound 0.316 µM
[33] = second compound 10 µM, first compound 1 µM
[34] = second compound 10 µM, first compound 3.16 µM
[35] = second compound 10 µM, first compound 10 µM
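Note: drug exposure lasted 7 days starting on day 3 after seeding.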
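Throughout, for viability, T/C: luminescence viability as percent of DMSO vehicle wells = 100%.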

IC50 (curve of compound): < 0.949 nM
SMILES: CCc1c2c(nc3ccc(O)cc13)-c1cc3c(c(=O)n1C2)COC(=O)[C@]3(O)CC
viability, T/C (compound 0.000949 µM): 14.2% and 14.1%
viability, T/C (compound 0.003 µM): 10.3% and 11.1%
viability, T/C (compound 0.00949 µM): 6.95% and 8.29%
viability, T/C (compound 0.03 µM): 5.21% and 4.8%
viability, T/C (compound 0.0949 µM): 3.58% and 2.82%
viability, T/C (compound 0.3 µM): 1.67% and 10.8%

SMILES: CC(C)c1c(-c2ccccc2)nc2c(C#N)c[nH]n2c1=O + NC1CC1c1ccc(-c2cccc(O)c2)cc1
IC50 [1]: > 10000 nM
IC50 [2]: > 10000 nM
IC50 [3]: > 10000 nM
IC50 [4]: > 10000 nM
IC50 [5]: > 10000 nM
viability, T/C [6]: 96.8%
viability, T/C [7]: 109%
viability, T/C [8]: 93.8%
viability, T/C [9]: 95.7%
viability, T/C [10]: 95.5%
viability, T/C [11]: 86.2%
viability, T/C [12]: 98.2%
viability, T/C [13]: 94.7%
viability, T/C [14]: 99.7%
viability, T/C [15]: 87.4%
viability, T/C [16]: 88%
viability, T/C [17]: 83.6%
viability, T/C [18]: 96.5%
viability, T/C [19]: 102%
viability, T/C [20]: 93.6%
viability, T/C [21]: 86.2%
viability, T/C [22]: 90.5%
viability, T/C [23]: 80.4%
viability, T/C [24]: 98.8%
viability, T/C [25]: 96%
viability, T/C [26]: 94.2%
viability, T/C [27]: 88.9%
viability, T/C [28]: 86.1%
viability, T/C [29]: 83.7%
viability, T/C [30]: 86.1%
viability, T/C [31]: 86.6%
viability, T/C [32]: 88.7%
viability, T/C [33]: 86.9%
viability, T/C [34]: 81.3%
viability, T/C [35]: 73.9%

SMILES: Nc1ncn(C2CC(O)C(CO)S2)c(=O)n1 (stereo unspecified) + NC1CCC(NC2CC2c2ccccc2)CC1
IC50 [1]: > 300 nM
IC50 [2]: > 300 nM
IC50 [3]: > 300 nM
IC50 [4]: > 300 nM
IC50 [5]: > 300 nM
viability, T/C (second compound 0.1 µM, first compound 0.000949 µM): 99.6%
viability, T/C (second compound 0.1 µM, first compound 0.003 µM): 93.5%
viability, T/C (second compound 0.1 µM, first compound 0.00949 µM): 85.8%
viability, T/C (second compound 0.1 µM, first compound 0.03 µM): 90.1%
viability, T/C (second compound 0.1 µM, first compound 0.0949 µM): 93.8%
viability, T/C (second compound 0.1 µM, first compound 0.3 µM): 73%
viability, T/C (second compound 0.316 µM, first compound 0.000949 µM): 95.5%
viability, T/C (second compound 0.316 µM, first compound 0.003 µM): 89.3%
viability, T/C (second compound 0.316 µM, first compound 0.00949 µM): 89%
viability, T/C (second compound 0.316 µM, first compound 0.03 µM): 89.5%
viability, T/C (second compound 0.316 µM, first compound 0.0949 µM): 97.8%
viability, T/C (second compound 0.316 µM, first compound 0.3 µM): 80.1%
viability, T/C (second compound 1 µM, first compound 0.000949 µM): 87.1%
viability, T/C (second compound 1 µM, first compound 0.003 µM): 87.9%
viability, T/C (second compound 1 µM, first compound 0.00949 µM): 86.4%
viability, T/C (second compound 1 µM, first compound 0.03 µM): 89.2%
viability, T/C (second compound 1 µM, first compound 0.0949 µM): 86.6%
viability, T/C (second compound 1 µM, first compound 0.3 µM): 78.1%
viability, T/C (second compound 3.16 µM, first compound 0.000949 µM): 92.4%
viability, T/C (second compound 3.16 µM, first compound 0.003 µM): 91.7%
viability, T/C (second compound 3.16 µM, first compound 0.00949 µM): 84%
viability, T/C (second compound 3.16 µM, first compound 0.03 µM): 92.8%
viability, T/C (second compound 3.16 µM, first compound 0.0949 µM): 87%
viability, T/C (second compound 3.16 µM, first compound 0.3 µM): 73.4%
viability, T/C (second compound 10 µM, first compound 0.000949 µM): 89.5%
viability, T/C (second compound 10 µM, first compound 0.003 µM): 81.7%
viability, T/C (second compound 10 µM, first compound 0.00949 µM): 82.9%
viability, T/C (second compound 10 µM, first compound 0.03 µM): 82.7%
viability, T/C (second compound 10 µM, first compound 0.0949 µM): 82.1%
viability, T/C (second compound 10 µM, first compound 0.3 µM): 74.5%

IC50 (curve of compound): > 1000 nM
SMILES: Nc1ncn(C2CC(O)C(CO)O2)c(=O)n1 (stereo unspecified)
viability, T/C (compound 0.00316 µM): 101% and 96.5%
viability, T/C (compound 0.01 µM): 92.3% and 88.8%
viability, T/C (compound 0.0316 µM): 81.1% and 89%
viability, T/C (compound 0.1 µM): 86.6% and 94%
viability, T/C (compound 0.316 µM): 80.8% and 94.5%
viability, T/C (compound 1 µM): 78% and 87%

SMILES: O=C(C=Cn1cnc(-c2cc(C(F)(F)F)cc(C(F)(F)F)c2)n1)NNc1cnccn1 + NC1CCC(NC2CC2c2ccccc2)CC1
IC50 [1]: 34.6 nM
IC50 [2]: 54.3 nM
IC50 [3]: 45.6 nM
IC50 [4]: 40.4 nM
IC50 [5]: 45.1 nM
viability, T/C (second compound 0.1 µM, first compound 0.00316 µM): 126%
viability, T/C (second compound 0.1 µM, first compound 0.01 µM): 106%
viability, T/C [6]: 49.8%
viability, T/C [7]: 44.6%
viability, T/C [8]: 38.1%
viability, T/C [9]: 28.6%
viability, T/C (second compound 0.316 µM, first compound 0.00316 µM): 142%
viability, T/C (second compound 0.316 µM, first compound 0.01 µM): 98.2%
viability, T/C [12]: 51.2%
viability, T/C [13]: 49.5%
viability, T/C [14]: 39.5%
viability, T/C [15]: 28.1%
viability, T/C (second compound 1 µM, first compound 0.00316 µM): 128%
viability, T/C (second compound 1 µM, first compound 0.01 µM): 116%
viability, T/C [18]: 54.3%
viability, T/C [19]: 46.6%
viability, T/C [20]: 40%
viability, T/C [21]: 28.4%
viability, T/C (second compound 3.16 µM, first compound 0.00316 µM): 110%
viability, T/C (second compound 3.16 µM, first compound 0.01 µM): 106%
viability, T/C [24]: 52.8%
viability, T/C [25]: 44.3%
viability, T/C [26]: 40.9%
viability, T/C [27]: 27.9%
viability, T/C (second compound 10 µM, first compound 0.00316 µM): 99.1%
viability, T/C (second compound 10 µM, first compound 0.01 µM): 101%
viability, T/C [30]: 55.5%
viability, T/C [31]: 43.1%
viability, T/C [32]: 37.5%
viability, T/C [33]: 31.9%

SMILES: O=C(c1cc(Cc2n[nH]c(=O)c3ccccc23)ccc1F)N1CCN(C(=O)C2CC2)CC1 + NC1CCC(NC2CC2c2ccccc2)CC1
IC50 [1]: > 10000 nM
IC50 [2]: > 10000 nM
IC50 [3]: > 10000 nM
IC50 [4]: > 10000 nM
IC50 [5]: > 10000 nM
viability, T/C [6]: 89.1%
viability, T/C [7]: 97.5%
viability, T/C [8]: 83.5%
viability, T/C [9]: 83.2%
viability, T/C [10]: 84.6%
viability, T/C [11]: 72.3%
viability, T/C [12]: 98.7%
viability, T/C [13]: 90.8%
viability, T/C [14]: 83.4%
viability, T/C [15]: 84.6%
viability, T/C [16]: 82.1%
viability, T/C [17]: 73.8%
viability, T/C [18]: 94.2%
viability, T/C [19]: 87.3%
viability, T/C [20]: 87.7%
viability, T/C [21]: 93%
viability, T/C [22]: 88.1%
viability, T/C [23]: 79.5%
viability, T/C [24]: 89.5%
viability, T/C [25]: 89.8%
viability, T/C [26]: 92%
viability, T/C [27]: 87.7%
viability, T/C [28]: 79.8%
viability, T/C [29]: 76.1%
viability, T/C [30]: 83.3%
viability, T/C [31]: 81.9%
viability, T/C [32]: 86.4%
viability, T/C [33]: 82.6%
viability, T/C [34]: 80.8%
viability, T/C [35]: 72.7%

IC50 (curve of compound): > 100 nM
SMILES: Cn1ncnc1C1c2n[nH]c(=O)c3cc(F)cc(c23)NC1c1ccc(F)cc1 (stereo unspecified)
viability, T/C (compound 0.000316 µM): 114% and 96.5%
viability, T/C (compound 0.001 µM): 89% and 83.3%
viability, T/C (compound 0.00316 µM): 95.8% and 84.2%
viability, T/C (compound 0.01 µM): 95.8% and 73.8%
viability, T/C (compound 0.0316 µM): 89.2% and 86.2%
viability, T/C (compound 0.1 µM): 81.8% and 86.8%
